In US20050032757A1, “Nutritional supplements” (priority 2003, published 2005):
Where a name gives a salt, the structure may show the parent alone.

assay: Evaluation of composition stability of PSE and fish oil mixtures with test reagents; assay type: physicochemical; settings: Phytosterol 2 g, fish oil 2 g, test reagent 0.10 g
Procedure: Varying amounts of PSE and fish oil were mixed in a 50 ml beaker. The mixture was warmed to 35-40° C. A variety of test reagents, including surfactants and small carboxylic acid esters, were then examined for their ability to stabilize the mixture at room temperature (RT), 40° C., and 50° C.

Molecule	Stability results
Polysorbate 60	unstable (unstable (separated quickly, usually less than 1-2 hr))
Polysorbate 80	unstable (unstable (separated quickly, usually less than 1-2 hr))

same assay, conditions: Phytosterol 2 g, fish oil 2 g, test reagent 0.30 g

Molecule	Stability results
CCOC(=O)CC(O)(CC(=O)OCC)C(=O)OCC [Triethyl Citrate]	unstable (unstable (separated quickly, usually less than 1-2 hr))

same assay, conditions: Phytosterol 4 g, fish oil 2 g, test reagent 0.10 g

Molecule	Stability results
Sorbitan Oleate	unstable (unstable (separated quickly, usually less than 1-2 hr))
Sodium Isostearyl Lactylate	unstable (unstable (separated quickly, usually less than 1-2 hr))
Polysorbate 20	unstable (unstable (separated quickly, usually less than 1-2 hr))
O=C(O)CC(O)(CC(=O)O)C(=O)O [Citric Acid]	insoluble
CCOC(=O)[C@H](O)[C@@H](O)C(=O)OCC [Diethyl L-tartrate]	stable (stable (did not separate for 24 hours))
CCOC(=O)CC(O)(CC(=O)OCC)C(=O)OCC [Triethyl Citrate]	stable (stable (did not separate for 24 hours))
OCC(O)CO [Glycerin]	insoluble
CCOC(=O)/C=C\C(=O)OCC [Diethyl Maleate]	stable (stable (did not separate for 24 hours))

same assay, conditions: Phytosterol 4 g, fish oil 2 g, test reagent 0.20 g

Molecule	Stability results
Sorbitan Oleate	unstable (unstable (separated quickly, usually less than 1-2 hr))
Polysorbate 20	unstable (unstable (separated quickly, usually less than 1-2 hr))
O=C(O)CC(O)(CC(=O)O)C(=O)O [Citric Acid]	insoluble
CCOC(=O)[C@H](O)[C@@H](O)C(=O)OCC [Diethyl L-tartrate]	stable (stable (did not separate for 24 hours))
CCOC(=O)CC(O)(CC(=O)OCC)C(=O)OCC [Triethyl Citrate]	stable (stable (did not separate for 24 hours))
Polysorbate 60	unstable (unstable (separated quickly, usually less than 1-2 hr))
Sodium Caproyl Lactylate	unstable (unstable (separated quickly, usually less than 1-2 hr))
Polysorbate 80	unstable (unstable (separated quickly, usually less than 1-2 hr))
CCOC(=O)/C=C\C(=O)OCC [Diethyl Maleate]	stable (stable (did not separate for 24 hours))

same assay, conditions: Phytosterol 4 g, fish oil 2 g, test reagent 0.30 g

Molecule	Stability results
Sorbitan Oleate	unstable (unstable (separated quickly, usually less than 1-2 hr))
O=C(O)CC(O)(CC(=O)O)C(=O)O [Citric Acid]	insoluble
CCOC(=O)[C@H](O)[C@@H](O)C(=O)OCC [Diethyl L-tartrate]	stable (stable (did not separate for 24 hours))
CCOC(=O)CC(O)(CC(=O)OCC)C(=O)OCC [Triethyl Citrate]	stable (stable (did not separate for 24 hours))
Polysorbate 60	unstable (unstable (separated quickly, usually less than 1-2 hr))
CCOC(=O)/C=C\C(=O)OCC [Diethyl Maleate]	insoluble

same assay, conditions: Phytosterol 4 g, fish oil 2 g, test reagent 0.40 g

Molecule	Stability results
Sorbitan Oleate	unstable (unstable (separated quickly, usually less than 1-2 hr))
CCOC(=O)CC(O)(CC(=O)OCC)C(=O)OCC [Triethyl Citrate]	stable (stable (did not separate for 24 hours))
Polysorbate 60	unstable (unstable (separated quickly, usually less than 1-2 hr))
